≈ marks a conversion by molar mass, not a printed value. Calls of active or inactive are those of the source. The calls are words filed in the database; no cut-off is given here.
Key:
Trichosporon asahii = assay: Antifungal activity against Trichosporon asahii 1188 after 24 to 48 hrs by broth microdilution method; assay type: functional
[1] = system: Trichophyton mentagrophytes; assay: Antifungal activity against Trichophyton mentagrophytes 445 after 72 to 120 hrs by broth microdilution method; assay type: functional
Klebsiella pneumoniae [2] = assay: Antibacterial activity against ESBL producing Klebsiella pneumoniae J 14368/08 after 24 to 48 hrs by broth microdilution method; assay type: functional
Enterococcus faecalis = assay: Antibacterial activity against Enterococcus faecalis J 14365/08 after 24 to 48 hrs by broth microdilution method; assay type: functional
Staphylococcus aureus [3] = assay: Antibacterial activity against Staphylococcus aureus ATCC 6538 after 24 to 48 hrs by broth microdilution method; assay type: functional
[4] = Cytotoxicity against human HeLa cells assessed as cell viability at 20 uM after 48 hrs by MTS assay; assay type: cell-based; conditions: read-out: Activity
Mycobacterium kansasii [5] = assay: Antimycobacterial activity against Mycobacterium kansasii CNCTC My 6509/96 after 21 days by microdilution method; assay type: functional; conditions: CNCTC My 6509/96, 504 h
Escherichia coli = assay: Antibacterial activity against Escherichia coli ATCC 8739 after 24 to 48 hrs by broth microdilution method; assay type: functional
[6] = Cytotoxicity against human HuH7 cells assessed as cell viability at 20 uM after 24 hrs by MTS assay; assay type: cell-based, Huh-7; conditions: read-out: Activity
Candida albicans = assay: Antifungal activity against Candida albicans ATCC 44859 after 24 to 48 hrs by broth microdilution method; assay type: functional
[7] = Cytotoxicity against human HuH7 cells assessed as cell viability after 24 hrs by MTS assay; assay type: cell-based; conditions: Huh-7, 24 h
[8] = Cytotoxicity against human HuH7 cells assessed as cell viability after 48 hrs by MTS assay; assay type: cell-based; conditions: Huh-7, 48 h
Salmonella typhimurium [9] = assay: Mutagenic activity in Salmonella typhimurium TA98 assessed as reverse mutation at 30 uM by Ames test; assay type: toxicity, organism-based; conditions: salmonella enterica subsp. enterica serovar typhimurium
Klebsiella pneumoniae [10] = assay: Antibacterial activity against Klebsiella pneumoniae D 11750/08 after 24 to 48 hrs by broth microdilution method; assay type: functional
[11] = Cytotoxicity against human HuH7 cells assessed as cell viability at 20 uM after 48 hrs by MTS assay; assay type: cell-based, Huh-7; conditions: read-out: Activity
[12] = Cytotoxicity against MDCK2-MDR1 cells assessed as cell viability after 24 hrs by MTS assay; assay type: ADME, cell-based; conditions: Canis lupus familiaris, MDCK-II
Nakaseomyces glabratus = assay: Antifungal activity against Candida glabrata 20/I after 24 to 48 hrs by broth microdilution method; assay type: functional
HeLa = assay: Cytotoxicity against human HeLa cells assessed as cell viability after 24 hrs by MTS assay; assay type: cell-based
[13] = Cytotoxicity against MDCK2-MDR1 cells assessed as cell viability at 20 uM after 24 hrs by MTS assay; assay type: ADME, cell-based, Canis lupus familiaris, MDCK-II; conditions: dog, read-out: Activity
Lichtheimia corymbifera = assay: Antifungal activity against Absidia corymbifera 272 after 24 to 48 hrs by broth microdilution method; assay type: functional
Pseudomonas aeruginosa = assay: Antibacterial activity against Pseudomonas aeruginosa ATCC 9027 after 24 to 48 hrs by broth microdilution method; assay type: functional
Staphylococcus aureus [14] = assay: Antibacterial activity against methicillin-resistant Staphylococcus aureus H 5996/08 after 24 to 48 hrs by broth microdilution method; assay type: functional
Salmonella typhimurium [15] = assay: Mutagenic activity in Salmonella typhimurium TA100 assessed as reverse mutation at 30 uM by Ames test; assay type: toxicity, organism-based; conditions: salmonella enterica subsp. enterica serovar typhimurium
[16] = Cytotoxicity against human HeLa cells assessed as cell viability at 20 uM after 24 hrs by MTS assay; assay type: cell-based; conditions: read-out: Activity
Candida tropicalis = assay: Antifungal activity against Candida tropicalis 156 after 24 to 48 hrs by broth microdilution method; assay type: functional
[17] = Cytotoxicity against MDCK2-MDR1 cells assessed as cell viability at 20 uM after 48 hrs by MTS assay; assay type: ADME, cell-based, Canis lupus familiaris, MDCK-II; conditions: dog, read-out: Activity
[18] = system: Staphylococcus epidermidis; assay: Antibacterial activity against Staphylococcus epidermidis H 6966/08 after 24 to 48 hrs by broth microdilution method; assay type: functional
Aspergillus fumigatus = assay: Antifungal activity against Aspergillus fumigatus 231 after 24 to 48 hrs by broth microdilution method; assay type: functional
Pichia kudriavzevii = assay: Antifungal activity against Candida krusei E28 after 24 to 48 hrs by broth microdilution method; assay type: functional
[19] = system: Mycobacterium tuberculosis; assay: Antimycobacterial activity against Mycobacterium tuberculosis H37Rv after 7 days by HTS assay; assay type: functional; conditions: 168 h
[20] = system: Mycobacterium tuberculosis; assay: Inhibition of proteosynthesis in Mycobacterium tuberculosis H37Ra assessed as reduction of [14C]-methionine incorporation at 5 ug/ml preincubated for 1 hr followed by radiolabeling with [14C]-methionine for 24 hrs by scintillation spectrometry; assay type: functional, organism-based
[21] = system: Mycobacterium tuberculosis; assay: Inhibition of RNA biosynthesis in Mycobacterium tuberculosis H37Ra assessed as reduction of [14C]-uracil incorporation at 5 ug/ml preincubated for 1 hr followed by radiolabeling with [14C]-uracil for 24 hrs by scintillation spectrometry; assay type: functional, organism-based
[22] = system: Mycobacterium tuberculosis; assay: Antimycobacterial activity against Mycobacterium tuberculosis H37Ra assessed as growth inhibition at 5 ug/ml preincubated for 1 hr followed by radiolabeling with [14C]-uracil, [14C]-methionine for 24 hrs; assay type: functional, organism-based
Mycobacterium kansasii [23] = assay: Antimycobacterial activity against Mycobacterium kansasii CNCTC My 235/80 after 14 days by microdilution method; assay type: functional; conditions: CNCTC My 235/80, 336 h
[24] = system: Mycobacterium tuberculosis; assay: Antimycobacterial activity against Mycobacterium tuberculosis CNCTC My 331/88 after 21 days by microdilution method; assay type: functional; conditions: CNCTC My 331/88, 504 h
Mycobacterium kansasii [25] = assay: Antimycobacterial activity against Mycobacterium kansasii CNCTC My 235/80 after 7 days by microdilution method; assay type: functional; conditions: CNCTC My 235/80, 168 h
Mycobacterium kansasii [26] = assay: Antimycobacterial activity against Mycobacterium kansasii CNCTC My 235/80 after 21 days by microdilution method; assay type: functional; conditions: CNCTC My 235/80, 504 h
Mycobacterium kansasii [27] = assay: Antimycobacterial activity against Mycobacterium kansasii CNCTC My 6509/96 after 14 days by microdilution method; assay type: functional; conditions: CNCTC My 6509/96, 336 h
Mycobacterium kansasii [28] = assay: Antimycobacterial activity against Mycobacterium kansasii CNCTC My 6509/96 after 7 days by microdilution method; assay type: functional; conditions: CNCTC My 6509/96, 168 h
[29] = Cytotoxicity against primary human hepatocytes assessed as cell viability at 20 uM after 48 hrs by MTS assay; assay type: cell-based, Hepatocyte; conditions: read-out: Activity
Mycobacterium avium [30] = assay: Antimycobacterial activity against Mycobacterium avium CNCTC My 330/88 after 21 days by microdilution method; assay type: functional; conditions: CNCTC My 330/88, 504 h
Hepatocyte = assay: Cytotoxicity against primary human hepatocytes assessed as cell viability after 48 hrs by MTS assay; assay type: cell-based
Mycobacterium avium [31] = assay: Antimycobacterial activity against Mycobacterium avium CNCTC My 330/88 after 14 days by microdilution method; assay type: functional; conditions: CNCTC My 330/88, 336 h
[32] = system: Mycobacterium tuberculosis; assay: Antimycobacterial activity against Mycobacterium tuberculosis CNCTC My 331/88 after 14 days by microdilution method; assay type: functional; conditions: CNCTC My 331/88, 336 h

SMILES | MIC80 (Trichosporon asahii) [µM] | MIC50 [1] [µM] | MIC95 (Klebsiella pneumoniae [2]) [µM] | MIC95 (Enterococcus faecalis) [µM] | MIC95 (Staphylococcus aureus [3]) [µM] | viability at 48 h, 20 µM [4] [%] | MIC99 (Mycobacterium kansasii [5]) [µM] | MIC95 (Escherichia coli) [µM] | viability at 24 h, 20 µM [6] [%] | MIC80 (Candida albicans) [µM] | IC50 [7] [µM] | MIC95 (Klebsiella pneumoniae [10]) [µM] | viability at 48 h, 20 µM [11] [%] | IC50 [12] [µM] | MIC80 (Nakaseomyces glabratus) [µM] | IC50 (HeLa) [µM] | viability at 24 h, 20 µM [13] [%] | MIC50 (Lichtheimia corymbifera) [µM] | MIC95 (Pseudomonas aeruginosa) [µM] | MIC95 (Staphylococcus aureus [14]) [µM] | also measured
O=[N+]([O-])c1cc(CSc2nnc(-c3ccccc3)o2)cc([N+](=O)[O-])c1 | > 125 | > 125 | > 125 | > 125 | > 125 | 33.2 | 2 (≈ 0.717 µg/mL) | > 125 | 99.3 | > 125 | > 20 | > 125 | 73.8 | > 20 | > 125 | > 20 | 72.6 | > 125 | > 125 | > 125 | IC50 [8]: > 20 µM; Activity (Salmonella typhimurium [9]): Toxic; Activity (Salmonella typhimurium [15]): Non-toxic; viability at 24 h, 20 µM [16]: 88.3%; MIC80 (Candida tropicalis): > 125 µM; viability at 48 h, 20 µM [17]: 42.4%; MIC95 [18]: > 125 µM; MIC50 (Aspergillus fumigatus): > 125 µM; MIC80 (Pichia kudriavzevii): > 125 µM
COC(=O)CSc1nnc(-c2ccc(C(C)(C)C)cc2)s1 | – | – | – | – | – | – | – | – | – | – | – | – | – | – | – | – | – | – | – | – | IC90 [19]: 0.62 µM
NC[C@H]1O[C@H](O[C@H]2[C@H](O)[C@@H](O[C@H]3O[C@H](CO)[C@@H](O)[C@H](N)[C@H]3O)[C@H](N)C[C@@H]2N)[C@H](O)[C@@H](O)[C@@H]1O | – | – | – | – | – | – | – | – | – | – | – | – | – | – | – | – | – | – | – | – | inhibition [20]: Active; inhibition [21]: inactive; growth inhibition (GI) [22]: Active
O=[N+]([O-])c1cc(CSc2nnc(-c3ccc(Cl)cc3Cl)o2)cc([N+](=O)[O-])c1 | > 125 | > 125 | > 125 | > 125 | > 125 | 39.9 | 0.5 (≈ 0.214 µg/mL) | > 125 | 95.7 | > 125 | > 20 | > 125 | 37.7 | > 20 | > 125 | > 20 | 106 | > 125 | > 125 | > 125 | MIC99 (Mycobacterium kansasii [23]): 0.5 µM (≈ 0.214 µg/mL); MIC99 [24]: 0.06 µM (≈ 0.0256 µg/mL); MIC99 (Mycobacterium kansasii [25]): 0.125 µM (≈ 0.0534 µg/mL); MIC99 (Mycobacterium kansasii [26]): 0.5 µM (≈ 0.214 µg/mL); MIC99 (Mycobacterium kansasii [27]): 0.25 µM (≈ 0.107 µg/mL); MIC99 (Mycobacterium kansasii [28]): 0.125 µM (≈ 0.0534 µg/mL); viability at 48 h, 20 µM [29]: 81.1%; MIC99 (Mycobacterium avium [30]): 32 µM (≈ 13.7 µg/mL); IC50 (Hepatocyte): > 20 µM; viability at 24 h, 20 µM [16]: 76.4%; MIC99 (Mycobacterium avium [31]): 16 µM (≈ 6.84 µg/mL); MIC99 [32]: ≤ 0.03 µM; MIC80 (Candida tropicalis): > 125 µM; viability at 48 h, 20 µM [17]: 27.9%; MIC95 [18]: > 125 µM; MIC50 (Aspergillus fumigatus): > 125 µM; MIC80 (Pichia kudriavzevii): > 125 µM

Reference: ChEMBL document CHEMBL3797190, “Development of 3,5-Dinitrobenzylsulfanyl-1,3,4-oxadiazoles and Thiadiazoles as Selective Antitubercular Agents Active Against Replicating and Nonreplicating Mycobacterium tuberculosis” (J Med Chem, 2016)
